Measured values as given in patent US20230302160A1, “TUMOR CONTRAST COMPOUND, PREPARATION METHOD THEREFOR AND APPLICATION THEREOF IN TUMOR DIAGNOSTIC IMAGING” (Ningbo Haibo Biotechnology Co., Ltd, priority 2020, published 2023).
Where two headings read alike, the source gives them in different places.

How the values were obtained:
[1] = system: tumor tissue in a mouse subcutaneous xenograft breast cancer tumor model; assay: Near-infrared imaging of tumor tissue, breast cancer model; settings: compound:surfactin 1:5, breast cancer xenograft tumor tissue; for correlation between uptake by tumor tissues and immersion time: ROI
From the text: (§1) Mice were dissected, and tumor tissues were taken.
(§2) The tumor tissue was immersed in the above liquid.

[2] = Fluorescence emission spectroscopy test after mixing with surfactin in different ratios; format: physicochemical; settings: for fluorescence quenching in aqueous solution under the action of surfactin compared with methanol solution (emission spectra): compound 20 μM, Ex=730 nm, Em=760-960 nm, ratio 1:5 stated for Compounds 1-3; for fluorescence quenching effect when the amount of surfactin was reduced: compound:surfactin from 1:5 to 1:1, 1:0.2
Method: Surfactin in different concentrations was added to the aqueous solution of the corresponding compound (final concentration of 20 μM), and the molar ratio of the compound to be tested to surfactin was 1:5, 1:1, 1:0.2. A methanol solution of the corresponding compound (final concentration of 20 μM) was used as a positive control. The test solution was shaken for 5 minutes and its fluorescence emission spectra (Ex=730 nm, Em=760-960 nm) were detected using a fluorescence spectrophotometer.

[3] = system: tumor tissue in a mouse subcutaneous xenograft renal clear cell carcinoma tumor model (786o); assay: Near-infrared imaging of excised tumor tissue immersed in compound/surfactin solution, renal clear cell carcinoma model; settings: compound 20 μM, surfactin 100 μM (1:5), 786o xenograft tumor tissue immersed; for correlation between uptake by tumor tissues and immersion time: ROI
Method: as §1
Compounds 1-8 were added to the aqueous solution of surfactin. The final concentration of surfactin was 100 μM, and the final concentration of each compound was 20 μM (the molar ratio of the compound to surfactant was 1:5).
as §2

[4] = system: diseased colonic tissue in a mouse primary bowel cancer tumor model (APCmin/+); assay: Near-infrared imaging of diseased colon tissue immersed in compound/surfactin mixture, primary bowel cancer model; settings: for recognition of tumor lesions: mixture with surfactin 1:5 (20 μM/100 μM), colon tissue immersed 12 min; for imaging ranking: mixture with surfactin 1:5, colon tissue immersed 12 min
Method: Establishment of the mouse primary bowel cancer tumor model of APCmin/+ mouse model: parent C57BL/6J-APC min/+ mice and C57BL/6J wt mice were caged and propagated. The genotype of the offspring was detected and the offspring C57BL/6J-APC min/+ mice (diseased mice) were screened. The offspring C57BL/6J-APC min/+ mice were killed at week 20. Mice were dissected and diseased colon tissue was taken. Colon was cut longitudinally for subsequent tests.
Compounds 1-8 were added to the aqueous solution of surfactin.
The diseased colon tissue of mice was immersed in the above fluid. A fluorescence imager was used for imaging after 12 min.

[5] = Fluorescence quenching effect after mixing with surfactin in different ratios (fluorescence imager, ROI); format: physicochemical; settings: compound 20 μM with surfactin
Method: The test solution was shaken for 5 min and added to a black 96-well plate with 50 ul of test solution per experimental well. Then a fluorescence imager was used for imaging. The photos were taken under Ex=745 nm, Em=820 nm. The ROI (Region of Interest) value for each well was quantitatively calculated.

[6] = system: human renal cancer cell line A498; assay: Fluorescence localization imaging in human renal cancer cell line A498; format: cell-based; settings: same method as Example 2; for intracellular localization: A498 cells
Method: 786o cells (3×10^5/well) were seeded in a 6-well plate in advance and placed in a cell culture incubator for 48 h. After the culture medium was blotted, a culture medium comprising the corresponding compound (5 μM) and Mito-tracker (0.2 nM) was added to the experimental well, incubated for 30 min, cleaned three times with PBS solution, and imaged using a fluorescence microscope equipped with an infrared camera and a continuous LED light source. The near-infrared photos were taken under Ex=745 nm, Em=820 nm; the Mito-tracker photos were taken under Ex=488 nm and Em=520 nm.
The same method as Example 2 was employed except that the human renal cancer cell line A498 was used to detect the localization of Compounds 4, 5 within the cell.

[7] = molar ratio 1:1
Method: Different surfactants were added to the aqueous solution of Compound 4 (final concentration of […]), and the molar ratio of the compound to be tested to surfactin was 1:1. In addition, a methanol solution of the compound (final concentration of 20 μM) was used as a positive control. The test solution was shaken for 5 minutes and its fluorescence emission spectra (Ex=730 nm, Em=760-960 nm) were detected using a fluorescence spectrophotometer.

[8] = system: organic anion transporting polypeptides (OATPs); settings: compound:surfactin 1:5, 1 mM sodium bromosulfophthalein (50 equivalent), renal clear cell carcinoma xenograft tumor tissue
Method: Female nude mice around 5 weeks of age were ordered and subjected to subcutaneous renal clear cell cancer cell 786o inoculation after one week of barrier environmental adaptation at a specific position above the right lower limb (3×10^6/pce, suspended in 200 μl PBS solution). When the tumor volume reached 50-150 mm^3 (about 12-22 days), nude mice were randomly grouped with 3 mice in each experimental group. Mice were dissected, and tumor tissues were taken.
The tumor tissue was immersed in the above liquid. A fluorescence imager was used for imaging after a specified time.

Row | fluorescence quenching in aqueous solution under the action of surfactin compared with methanol solution (emission spectra) [2] | fluorescence quenching effect when the amount of surfactin was reduced [2] | fluorescence quenching effect, comparison between compounds [5] | Structure (SMILES) | uptake of the compound by tumor tissue (level) [1] | correlation between uptake by tumor tissues and immersion time [1] | overall imaging of tumor tissue [3] | reason for near-infrared imaging of tumor tissues [3] | uptake of the compound by tumor tissue (level) [3] | correlation between uptake by tumor tissues and immersion time [3] | recognition of tumor lesions [4] | imaging ranking [4] | intracellular localization [6] | uptake by tumor cells [6] | fluorescence signal in aqueous solution after mixing ([7]; mixed with anionic surfactants (surfactin, sodium dodecyl sulfonate, sodium dodecyl benzene sulfonate)) | fluorescence signal in aqueous solution after mixing ([7]; mixed with cationic surfactants (dodecyltrimethylammonium chloride, tetrabutylammonium iodide)) | fluorescence signal in aqueous solution after mixing ([7]; mixed with human serum albumin) | fluorescence signal in aqueous solution after mixing ([7]; mixed with nonionic surfactants (Kolliphor, P123)) | effect of excessive sodium bromosulfophthalein on uptake by tumor tissues [8]
1 | obvious fluorescence quenching | not significantly reduced | – | CC[N+]1=C(/C=C/C2=C(Cl)C(=C/C=C3/N(CCCCCC(=O)Nc4ccc(NC(=O)OC(C)(C)C)cc4)c4ccccc4C3(C)C)/CCC2)C(C)(C)c2ccccc21 [Compound 6] | higher | an obvious positive correlation | optimal imaging of tumor tissue | targeted recognition of tumor tissues by the compounds | high uptake | an obvious positive correlation | high specific recognition | best imaged | – | – | – | – | – | – | –
2 | obvious fluorescence quenching | not significantly reduced | better than that of Compounds 1, 2 and 3 | CC[N+]1=C(/C=C/C2=C(Cl)C(=C/C=C3/N(CCCCCC(=O)Oc4ccc(NC(=O)OC(C)(C)C)cc4)c4ccccc4C3(C)C)/CCC2)C(C)(C)c2ccccc21 [Compound 5] | – | – | – | targeted recognition of tumor tissue by the compounds | low uptake | a certain positive correlation | high specific recognition | – | enriched in mitochondria | uptaken by tumor cells | – | – | – | – | –
3 | obvious fluorescence quenching | significantly reduced | – | CC[N+]1=C(/C=C/C2=C(Cl)C(=C/C=C3/N(CCCCCC(=O)O)c4ccccc4C3(C)C)/CCC2)C(C)(C)c2ccccc21 [Compound 3, reference compound] | – | – | – | non-specific adsorption of the compounds by tissues | – | no obvious positive correlation | had a recognition effect | – | – | – | – | – | – | – | –

The remaining lines, values behind:

Row | Structure (SMILES) | fluorescence quenching in aqueous solution under the action of surfactin compared with methanol solution (emission spectra) [2] | fluorescence quenching effect when the amount of surfactin was reduced [2] | fluorescence quenching effect, comparison between compounds [5] | uptake of the compound by tumor tissue (level) [1] | correlation between uptake by tumor tissues and immersion time [1] | overall imaging of tumor tissue [3] | reason for near-infrared imaging of tumor tissues [3] | uptake of the compound by tumor tissue (level) [3] | correlation between uptake by tumor tissues and immersion time [3] | recognition of tumor lesions [4] | imaging ranking [4] | intracellular localization [6] | uptake by tumor cells [6] | fluorescence signal in aqueous solution after mixing ([7]; mixed with anionic surfactants (surfactin, sodium dodecyl sulfonate, sodium dodecyl benzene sulfonate)) | fluorescence signal in aqueous solution after mixing ([7]; mixed with cationic surfactants (dodecyltrimethylammonium chloride, tetrabutylammonium iodide)) | fluorescence signal in aqueous solution after mixing ([7]; mixed with human serum albumin) | fluorescence signal in aqueous solution after mixing ([7]; mixed with nonionic surfactants (Kolliphor, P123)) | effect of excessive sodium bromosulfophthalein on uptake by tumor tissues [8]
4 | CCN1/C(=C/C=C2\CCCC(/C=C/C3=[N+](CC)c4ccccc4C3(C)C)=C2Cl)C(C)(C)c2ccccc21 [Compound 2, reference compound] | obvious fluorescence quenching | significantly reduced | – | – | – | – | non-specific adsorption of the compounds by tissues | – | no obvious positive correlation | had a recognition effect | – | – | – | – | – | – | – | –
5 | CC[N+]1=C(/C=C/C2=C(Cl)C(=C/C=C3/N(CCCCCC(=O)Oc4ccccc4)c4ccccc4C3(C)C)/CCC2)C(C)(C)c2ccccc21 [Compound 4] | obvious fluorescence quenching | not significantly reduced | better than that of Compounds 1, 2 and 3 | higher | an obvious positive correlation | optimal imaging of tumor tissue | targeted recognition of tumor tissues by the compounds | high uptake | an obvious positive correlation | high specific recognition | best imaged | enriched in mitochondria | uptaken by tumor cells | substantially no fluorescence signal | still fluorescence signal | still fluorescence signal | still fluorescence signal | effectively reduce the uptake
6 | CC1(C)C(/C=C/C2=C(Cl)C(=C/C=C3/N(CCCCCC(=O)O)c4ccccc4C3(C)C)/CCC2)=[N+](CCCCCC(=O)O)c2ccccc21 [Compound 1, reference compound] | obvious fluorescence quenching | significantly reduced | the worst | – | – | – | non-specific adsorption of the compounds by tissues | – | no obvious positive correlation | had a recognition effect | – | – | – | – | – | – | – | –
